According to article PMC9504289 (Pharmaceuticals, 2022):
Several values for one entry are separate records, joined by “and”; a condition that tells them apart may be missing. Identical values can stand only once. Like-named read-outs stand apart in the source and are kept apart here.

Assays:
HCoV-NL63 S1 – hACE2 = HCoV-NL63 S1 – hACE2 (Human coronavirus NL63, UniProt Q6Q1S2); assay: biochemical; assay type: binding; conditions: for IC50: Inhibition of HCoV-NL63 S1 – hACE2 Binding: IC50
[1] = test system: SARS-CoV-2 pseudovirus (orig. strain); assay: microbe, parasite or virus in culture; assay type: cell-based; conditions: Severe acute respiratory syndrome-related coronavirus, HEK-293T, read-out: Inhibition of SARS-CoV-2 pseudovirus entry (orig. strain) IC50
[2] = test system: SARS-CoV-2 pseudovirus (delta VoC); assay: microbe, parasite or virus in culture; assay type: cell-based
HEK293T cells = test system: HEK293T cells
Text: Figure 8 Cytotoxicity assessment. MTS cytotoxicity assay (HEK293T cells) using the same conditions as for the activity assessment (Figure 7). Data (symbols) are average ± SD of three experiments in duplicates; TC50 values shown in the legend were obtained from fitting with standard sigmoid curves as before.

SARS-CoV-2 [3] = conditions: read-out: antiviral activity IC50 confirmed in a live viral or pseudoviral assay; cited from earlier work
SARS-CoV-2-S = conditions: read-out: KD for binding to SARS-CoV-2-S; cited from earlier work
SARS-CoV-2 [4] = conditions: read-out: IC50 for SARS-CoV-2 infection inhibition; cited from earlier work
[5] = Severe acute respiratory syndrome-related coronavirus, HEK-293T, hACE2-expressing HEK293T, read-out: Inhibition of SARS-CoV-2 pseudovirus entry (delta VoC) IC50
[6] = same conditions as pseudovirus assay

HCoV-NL63 S1 – hACE2, sequence (Q6Q1S2 19-717 limits assumed): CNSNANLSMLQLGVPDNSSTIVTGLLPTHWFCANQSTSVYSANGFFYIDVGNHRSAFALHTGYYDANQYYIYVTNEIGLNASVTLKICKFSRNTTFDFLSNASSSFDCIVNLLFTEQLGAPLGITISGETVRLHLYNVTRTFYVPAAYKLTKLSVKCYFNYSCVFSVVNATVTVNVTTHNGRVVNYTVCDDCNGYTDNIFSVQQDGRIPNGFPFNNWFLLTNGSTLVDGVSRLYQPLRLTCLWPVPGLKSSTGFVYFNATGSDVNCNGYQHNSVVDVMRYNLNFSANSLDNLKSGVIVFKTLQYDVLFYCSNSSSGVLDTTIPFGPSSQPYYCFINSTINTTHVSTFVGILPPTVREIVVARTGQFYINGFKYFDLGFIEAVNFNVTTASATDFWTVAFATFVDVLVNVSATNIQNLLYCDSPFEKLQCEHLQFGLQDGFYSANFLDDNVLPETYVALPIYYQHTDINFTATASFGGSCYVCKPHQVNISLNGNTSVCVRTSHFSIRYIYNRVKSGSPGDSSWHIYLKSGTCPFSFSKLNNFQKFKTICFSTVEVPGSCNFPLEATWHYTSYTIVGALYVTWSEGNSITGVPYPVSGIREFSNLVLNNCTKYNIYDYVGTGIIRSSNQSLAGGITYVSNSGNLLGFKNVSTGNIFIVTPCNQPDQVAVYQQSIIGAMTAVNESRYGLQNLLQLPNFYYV

Row | Compound | IC50 (HCoV-NL63 S1 – hACE2) | IC50 ([1]; hACE2-expressing HEK293T) | IC50 [2, 5] | IC50 (SARS-CoV-2 [3]) | Cytotoxicity (HEK293T cells, MTS): TC50 (HEK293T cells; [6]) | also measured
1 | Nc1ccc2cc(S(=O)(=O)O)cc(O)c2c1/N=N/c1ccc(-c2ccc(/N=N/c3c(N)ccc4cc(S(=O)(=O)O)cc(O)c34)cc2)cc1 [Direct violet 1, direct violet 1] | < 3 µM and 2.29 µM | 35.8 µM | 2.97 µM | < 30 µM |  | Cytotoxicity (HEK293T cells, MTS): TC50 (HEK293T cells; same conditions as pseudovirus assay, listed as DV1): 110 µM and 110.10 µM
2 | verteporfin |  |  |  | < 30 µM |  | 
3 | O=C(Nc1ccc(-c2ccc(C(=O)Nc3cccc4cc(S(=O)(=O)O)ccc34)cc2)cc1)c1ccc([N+](=O)[O-])cc1 [DRI-C23041] | 4.16 µM | 4.71 µM | 5.42 µM | < 30 µM | > 1000.00 µM | loss of activity compared to the SARS-CoV assays (HCoV-NL63 S1 – hACE2): 2–5 fold; IC50 ([2]; read-out: Inhibition of SARS-CoV-2 pseudovirus entry (delta VoC) IC50, hACE2-expressing HEK293T): 6.31 µM
4 | CCCCCc1cc(O)c(C/C=C(\C)CCC=C(C)C)c(O)c1C(=O)O [cannabigerolic acid] |  |  |  | < 30 µM |  | 
5 | Nc1c(/N=N/c2ccc(-c3ccc(/N=N/c4cc(S(=O)(=O)O)c5ccccc5c4N)cc3)cc2)cc(S(=O)(=O)O)c2ccccc12 [Congo red] | < 3 µM and 2.26 µM | 20.3 µM | 3.07 µM | < 30 µM |  | Cytotoxicity (HEK293T cells, MTS): TC50 (HEK293T cells; same conditions as pseudovirus assay, listed as CgRd): 130 µM and 130.40 µM
6 | O=C(Nc1ccc(-c2ccc(C(=O)Nc3ccc(S(=O)(=O)O)c4cccc(S(=O)(=O)O)c34)cc2)cc1)c1ccc([N+](=O)[O-])cc1 [DRI-C2105041] |  | 217 µM | 26.9 µM |  | > 1000.00 µM | 
7 | O=C(Nc1ccc(-c2ccc(C(=O)Nc3cccc4c(S(=O)(=O)O)cccc34)cc2)cc1)c1ccc([N+](=O)[O-])cc1 [DRI-C24041] | 6.54 µM | 6.58 µM | 7.76 µM |  | > 600 µM and 617.90 µM | loss of activity compared to the SARS-CoV assays (HCoV-NL63 S1 – hACE2): 2–5 fold
8 | Cc1cc(-c2ccc(/N=N/c3ccc4c(S(=O)(=O)O)cc(S(=O)(=O)O)c(N)c4c3O)c(C)c2)ccc1/N=N/c1ccc2c(S(=O)(=O)O)cc(S(=O)(=O)O)c(N)c2c1O [Evans blue] | < 3 µM and 2.6 µM |  |  | < 30 µM |  | IC50 [1]: 16.6 µM; IC50 ([2]; Severe acute respiratory syndrome-related coronavirus, HEK-293T, read-out: Inhibition of SARS-CoV-2 pseudovirus entry (delta VoC) IC50, hACE2-expressing HEK293T): 25.4 µM; Cytotoxicity (HEK293T cells, MTS): TC50 (HEK293T cells; same conditions as pseudovirus assay, listed as EvBl): 439 µM and 439.20 µM; Kd (SARS-CoV-2-S): 2.2 µM; IC50 (SARS-CoV-2 [4]): 28.1 µM
9 | Nc1c(/N=N/c2ccc([N+](=O)[O-])cc2)c(S(=O)(=O)O)cc2cc(S(=O)(=O)O)c(/N=N/c3ccccc3)c(O)c12 [Naphthol blue black, naphthol blue black] | 58.7 µM | > 500 µM | 174 µM |  |  | Cytotoxicity (HEK293T cells, MTS): TC50 (HEK293T cells; human): > 1000.00 µM
10 | O=C(Nc1ccc2cc(C(=O)Nc3cccc4cccc(S(=O)(=O)O)c34)ccc2c1)c1ccc([N+](=O)[O-])cc1 [DRI-C41041] |  | > 500 µM | 27.7 µM |  | > 1000.00 µM | 
12 | C=C(C)[C@@H]1CCC(C)=C[C@H]1c1c(O)cc(CCCCC)c(C(=O)O)c1O [cannabidiolic acid] |  |  |  | < 30 µM |  | 
13 | O=S(=O)(O)c1ccc(/N=N/c2c(O)ccc3cc(S(=O)(=O)O)ccc23)cc1 [Sunset yellow, sunset yellow FCF] | > 500 µM | > 500 µM | > 500 µM |  |  | Cytotoxicity (HEK293T cells, MTS): TC50 (HEK293T cells; human): > 1000.00 µM
